Experimental data: patent US20210038732A1, “ANTICANCER MICRORNA AND LIPID FORMULATIONS THEREOF” (INTERNA TECHNOLOGIES B.V., priority 2018, published 2021)

Experiments:
[1] = test system: MPP2, STMN1, YWHAZ, and CCNA2; experiment: Expression of G2/M related target genes by RT-PCR; type: cell-based, human; conditions: 10 nM; Hep3B, SNU449 and H1975; 24h, 48h and 72h; vs mock
Experimental: To prepare cDNA, first 100 ng total RNA was mixed with Random Hexamers (Qiagen; final concentration 2 μM) in a final volume of 12.5 μl in NFW, denatured for 5 min at 70° C. and immediately cooled on ice. Next, 7.5 μl of a cDNA synthesis mix was added, consisting of 4 μl 5×RT Buffer (Promega), 0.4 μl 25 mM dNTPs (Promega), 1 μl 200 U/μL MMLV RT-enzyme (Promega), 0.5 μL 40 U/μL RNAse Inhibitor (Promega) and 1.6 μL NFW. The following cDNA synthesis protocol was used:
Similar phenotype has been observed in Panc1 (pancreatic cancer cell) as well as H1975 (lung cancer cell) (data not shown). […] MPP2 and STMN1 associate with cytoskeleton and therefore regulate cell division and proliferation at the G2/M phase, while YWHAZ and CCNA2 play roles in regulation of G2/M phase checkpoint by binding and sequestering the cyclin-dependent kinases.

[2] = test system: A549, H460, HEP3B, HUH7, A2058, BT549; experiment: RNA-sequencing differential expression in six cancer cell lines; type: cell-based, human; conditions: for Down-regulated genes: adjusted P<0.1, 10 nM, 24h
Experimental: Six human cancer cell lines were cultured in appropriate media (Table 3) and seeded into 6-well plates 24h before transfection with 10 nM miRNA-193a-3p or mock using Lipofectamine RNAiMAX (Thermofisher). Reagents were aspirated 16h after transfection and cells were passaged into new 6-well plates. Media was aspirated 24h after transfection and plates were stored at −80° C. Three independent replicates were performed for each cell line.
RNA was isolated using the miRNeasy Mini kit (Qiagen). The procedure included on-column DNase treatment. RNA concentration was measured on NanodropOne. 150 ng of each independent replicate was pooled and 450 ng samples (Table) were submitted to GenomeScan BV (Leiden, The Netherlands).
PolyA enrichment was performed followed by next generation RNA-Sequencing using Illumina NovaSeq 6000 at GenomeScan BV. The data processing workflow included raw data quality control, adapter trimming, and alignment of short reads. The reference GRCh37.75.dna.primary_assembly was used for alignment of the reads for each sample. Based on the mapped locations in the alignment file the frequency of how often a read was mapped on a transcript was determined (feature counting). The counts were saved to count files, which serve as input for downstream RNA-Seq differential expression analysis.
Differential expression analysis was performed on the short read data set by GenomeScan BV. The read counts were loaded into the DESeq package v1.30.0, a statistical package within the R platform v3.4.4. DESeq was specifically developed to find differentially expressed genes between two conditions (mock versus miRNA-193a-3p) for RNA-Seq data with small sample size and over-dispersion. […]

Substance: miRNA-193a: duplex of the miRNA-193a-3p of SEQ ID NO: 218 (mimic, sense) with antisense strand SEQ ID NO: 219; naked in vitro, formulated in vivo (sense UGGGACUUUGUAGGCCAGUUTT; antisense AACUGGCCUACAAAGUCCCAGU; chemistry not given here; listed as Homo sapiens)
- Expression level of G2/M related target genes [1]: down-regulated
- % Predicted ([2]; # cell lines =6): 83%
- Down-regulated genes ([2]; # cell lines =6): 35
- % Predicted ([2]; # cell lines ≥1): 58%
- Down-regulated genes ([2]; # cell lines ≥1): 352
- % Predicted ([2]; # cell lines ≥2): 65%
- Down-regulated genes ([2]; # cell lines ≥2): 282
- % Predicted ([2]; # cell lines ≥3): 67%
- Down-regulated genes ([2]; # cell lines ≥3): 242
- % Predicted ([2]; # cell lines ≥4): 66%
- Down-regulated genes ([2]; # cell lines ≥4): 218
- % Predicted ([2]; # cell lines ≥5): 63%
- Down-regulated genes ([2]; # cell lines ≥5): 181
